For 20 compounds, IC50 results are on record in patent US20220033397A1, “PHARMACEUTICAL COMPOUNDS AND THEIR USE AS INHIBITORS OF UBIQUITIN SPECIFIC PROTEASE 19 (USP19)” (ALMAC DISCOVERY LIMITED, priority 2018, published 2022).

Usually IC50 stands for the concentration that inhibits the measured activity by half.

A value given as a limit tells only on which side of the number the result lay.

The target of the test is T1, Full-length USP19 (Homo sapiens, UniProt O94966).
T1 construct: Full-length USP19 was purchased from Boston Biochem (E-576); purchased Boston Biochem E-576
T1 sequence (O94966 1-1318): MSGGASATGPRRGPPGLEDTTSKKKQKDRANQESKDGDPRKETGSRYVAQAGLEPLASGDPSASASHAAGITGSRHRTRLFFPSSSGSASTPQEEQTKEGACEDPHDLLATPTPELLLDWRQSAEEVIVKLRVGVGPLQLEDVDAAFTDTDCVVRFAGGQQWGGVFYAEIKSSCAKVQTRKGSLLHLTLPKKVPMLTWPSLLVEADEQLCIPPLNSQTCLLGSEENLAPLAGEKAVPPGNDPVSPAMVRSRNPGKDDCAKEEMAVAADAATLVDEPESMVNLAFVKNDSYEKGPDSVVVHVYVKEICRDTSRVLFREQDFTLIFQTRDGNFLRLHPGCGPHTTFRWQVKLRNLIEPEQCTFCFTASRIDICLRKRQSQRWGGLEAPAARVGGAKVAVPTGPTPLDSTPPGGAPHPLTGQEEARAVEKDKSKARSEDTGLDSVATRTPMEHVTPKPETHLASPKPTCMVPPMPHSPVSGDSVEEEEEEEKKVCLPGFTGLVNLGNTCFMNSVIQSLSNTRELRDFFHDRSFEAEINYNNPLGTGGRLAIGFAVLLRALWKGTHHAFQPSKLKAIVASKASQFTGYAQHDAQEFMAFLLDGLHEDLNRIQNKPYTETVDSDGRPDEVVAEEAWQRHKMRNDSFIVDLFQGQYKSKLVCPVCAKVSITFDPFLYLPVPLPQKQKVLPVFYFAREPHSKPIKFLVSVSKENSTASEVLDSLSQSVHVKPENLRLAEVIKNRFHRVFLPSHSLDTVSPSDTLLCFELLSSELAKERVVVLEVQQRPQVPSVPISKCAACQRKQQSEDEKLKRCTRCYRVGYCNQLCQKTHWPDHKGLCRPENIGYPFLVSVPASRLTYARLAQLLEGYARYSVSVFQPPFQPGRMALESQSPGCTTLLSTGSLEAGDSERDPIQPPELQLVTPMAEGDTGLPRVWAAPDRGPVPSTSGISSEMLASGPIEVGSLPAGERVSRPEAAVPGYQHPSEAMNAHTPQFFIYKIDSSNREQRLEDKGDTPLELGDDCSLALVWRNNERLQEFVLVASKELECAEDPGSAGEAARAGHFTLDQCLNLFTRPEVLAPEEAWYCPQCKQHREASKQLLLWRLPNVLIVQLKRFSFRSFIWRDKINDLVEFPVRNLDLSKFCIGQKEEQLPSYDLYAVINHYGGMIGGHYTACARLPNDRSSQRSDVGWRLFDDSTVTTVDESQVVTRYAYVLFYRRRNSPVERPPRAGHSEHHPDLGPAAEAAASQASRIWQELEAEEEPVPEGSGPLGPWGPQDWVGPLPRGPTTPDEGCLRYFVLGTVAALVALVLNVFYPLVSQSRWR
The test can be described thus: USP19 fluorescence polarisation (FP) homogeneous assay with Ubiquitin-Lys-TAMRA substrate. In kind it is biochemical. Particulars: 2.5 nM USP19, 30 min pre-incubation, average of at least two duplicate experiments. Summed up:
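Full-length USP19 preincubated 30 min at RT with inhibitor (200 μM to 2 μM series, 8–18 points) before adding 500 nM Ubiquitin-Lys-TAMRA substrate.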
In general terms: Fluorescence polarisation rises when a labelled molecule tumbles more slowly, as on binding a larger partner.
Turning to `O=C(N1CC[C@@](O)(Cn2cnc(-c3ccccc3)cc2=O)C2(CCCC2)C1)N1CCNCC1c1ccc(F)c(F)c1` (stereo partly drawn) [Example 379, 3-(((10S)-7-(2-(3,4-Difluorophenyl)piper-azine-1-carbonyl)-10-hydroxy-7-azaspiro[4.5]decan-10-yl)methyl)-6-phenylpyrimidin-4(3H)-one], the IC50 was less than 0.5 µM. On to `O=C(N1CCC(O)(Cn2cnc(-c3ccccc3)cc2=O)C2(CCCC2)C1)N1CCC[C@H]1c1ncn[nH]1` (stereo partly drawn) [Example 268, 3-((7-((S)-2-(1H-1,2,4-Triazol-5-yl)pyrrolidine-1-carbonyl)-10-hydroxy-7-azaspiro[4.5]decan-10-yl)methyl)-6-phenylpyrimidin-4(3H)-one], for which the IC50 lay within 50 to 250 µM. Consider `O=C(NCc1ccc2c(c1)OCO2)N1CC[C@@](O)(Cn2cnc(-c3ccccc3)cc2=O)C2(CCCC2)C1` [Example 217, (S)—N-(Benzo[d][1,3]dioxol-5-ylmethyl)-10-hydroxy-10-((6-oxo-4-phenylpyrimidin-1(6H)-yl)methyl)-7-azaspiro[4.5]decane-7-carboxamide], for which the IC50 lay in the range of 5 to 50 µM.

Consider `C[C@H](CC1CCCCC1)C(=O)N1CCC(O)(Cn2cnc3ccc(Cl)cc3c2=O)C2(CCCC2)C1` (stereo partly drawn) [Example 143, 6-Chloro-3-((7-((R)-3-cyclohexyl-2-methylpropanoyl)-10-hydroxy-7-azaspiro[4.5]decan-10-yl)methyl)quinazolin-4(3H)-one], for which the IC50 was less than 0.5 µM. On to `Cn1ccc(-c2cc(=O)n(C[C@]3(O)CCN(C(=O)N4CCNC[C@H]4c4ccccc4)CC34CCCC4)cn2)n1` [Example 371, 3-(((S)-10-Hydroxy-7-((R)-2-phenylpiperazine-1-carbonyl)-7-aza-spiro[4.5]decan-10-yl)methyl)-6-(1-methyl-1H-pyrazol-3-yl)pyrimidin-4(3H)-one], for which the IC50 is less than 0.5 µM. Take `O=C(N1CCC(O)(Cn2ccncc2=O)C2(CCCC2)C1)N1CCNC[C@H]1c1ccccc1` (stereo partly drawn) [Example 91, 1-((10-Hydroxy-7-((R)-2-phenylpiperazine-1-carbonyl)-7-azaspiro[4.5]decan-10-yl)methyl)pyrazin-2(1H)-one]: the IC50 was in the range of 0.5 to 5 µM.

In the case of `O=C(N1CC[C@@](O)(Cn2cnc(-c3ccccc3)cc2=O)C2(CCCC2)C1)N1CCNC[C@H]1c1ccc(F)cc1F` [Example 368, 3-(((S)-7-((R)-2-(2,4-Difluoro-phenyl)piper-azine-1-carbonyl)-10-hydroxy-7-azaspiro[4.5]decan-10-yl)methyl)-6-phenylpyrimidin-4(3H)-one], the IC50 was less than 0.5 µM. Under `CN(C)C(=O)c1cn(CC2(O)CCN(C(=O)N(C)C)CC23CCCC3)c(=O)cc1-c1ccccc1` (centres unmarked) [Example 86, 10-((5-(Dimethylcarbamoyl)-2-oxo-4-phenylpyridin-1(2H)-yl)methyl)-10-hydroxy-N,N-dimethyl-7-azaspiro[4.5]decane-7-carboxamide] stands 5 to 50 µM. In the case of `O=C(NCc1ccccc1)N1CCC(O)(Cn2cnc(-c3ccncc3)cc2=O)C2(CCCC2)C1` (centres unmarked) [Example 201, N-Benzyl-10-hydroxy-10-((6-oxo-4-(pyridin-4-yl)pyrimidin-1(6H)-yl)methyl)-7-azaspiro[4.5]decane-7-carboxamide] it was 0.5 to 5 µM; in that of `O=C(N1CC[C@@](O)(Cn2cnc(C3CC3)cc2=O)C2(CCCC2)C1)N1CCNC[C@H]1c1cccc(F)c1` [Example 377, 6-Cyclopropyl-3-(((S)-7-((R)-2-(3-fluoro-phenyl)piperazine-1-carbonyl)-10-hydroxy-7-aza-spiro[4.5]decan-10-yl)methyl)pyrimidin-4(3H)-one], less than 0.5 µM. On to `O=C(N1CC[C@@](O)(Cn2cnc(-c3ccccc3)cc2=O)C2(CCCC2)C1)N1CCSC[C@H]1c1cc(F)ccc1F` [Example 393, 3-(((S)-7-((R)-3-(2,5-Difluorophenyl)thio-morpholine-4-carbo-nyl)-10-hydroxy-7-azaspiro[4.5]decan-10-yl)methyl)-6-phenylpyrimidin-4(3H)-one], for which the IC50 is less than 0.5 µM. For `O=C(N1CC[C@@](O)(Cn2cnc(C3CC3)cc2=O)C2(CCCC2)C1)N1CCNC[C@H]1c1cc(F)ccc1F` [Example 378, 6-Cyclopropyl-3-(((S)-7-((R)-2-(2,5-difluorophenyl)piper-azine-1-carbonyl)-10-hydroxy-7-aza-spiro[4.5]decan-10-yl)methyl)pyrimidin-4(3H)-one], the IC50 is less than 0.5 µM.

For `O=C(N1CCC(C(F)F)CC1)N1CCC(O)(Cn2cnc(-c3ccccc3)cc2=O)C2(CCCC2)C1` (centres unmarked) [Example 241, 3-((7-(4-(Difluoromethyl)piperidine-1-carbonyl)-10-hydroxy-7-azaspiro[4.5]decan-10-yl)methyl)-6-phenylpyrimidin-4(3H)-one], the IC50 lay in the range of 5 to 50 µM. Under `CN(C)c1cc(=O)n(C[C@]2(O)CCN(C(=O)N3CCOC[C@H]3c3ccccc3)CC23CCCC3)cn1` [Example 226, 6-(Dimethylamino)-3-(((S)-10-hydroxy-7-((R)-3-phenylmorpholine-4-carbonyl)-7-azaspiro[4.5]decan-10-yl)methyl)pyrimidin-4(3H)-one] stands less than 0.5 µM; under `O=C(N1CCC(O)(Cn2cnc3cc(F)c(F)cc3c2=O)C2(CCCC2)C1)N1CCOC[C@H]1c1ccccc1` (stereo partly drawn) [Example 165, 6,7-Difluoro-3-((10-hydroxy-7-((R)-3-phenylmorpholine-4-carbonyl)-7-azaspiro[4.5]decan-10-yl)methyl)quinazolin-4(3H)-one], less than 0.5 µM; under `Cn1nc(C(F)(F)F)cc1-c1ccn(C[C@]2(O)CCN(C(=O)N3CCNC[C@H]3c3ccccc3)CC23CCCC3)c(=O)c1` [Example 362, 1-(((S)-10-Hydroxy-7-((R)-2-phenylpiperazine-1-carbonyl)-7-azaspiro [4.5]decan-10-yl)methyl)-4-(1-methyl-3-(trifluoromethyl)-1H-pyrazol-5-yl)pyri-din-2(1H)-one], less than 0.5 µM. In the case of `C[C@H](CC1CCCCC1)C(=O)N1CCC(O)(Cn2cc(S(C)(=N)=O)c(-c3ccccc3)cc2=O)C(C)(C)C1` (stereo partly drawn) [Example 68, 1-((1-((R)-3-Cyclohexyl-2-methylpropanoyl)-4-hydroxy-3,3-dimethylpiperidin-4-yl)methyl)-5-(S-methylsulfonimidoyl)-4-phenylpyridin-2(1H)-one], the IC50 lay within 0.5 to 5 µM. On to `C[C@H](CC(F)(F)F)C(=O)N1CCC(O)(Cn2cnc3c(cnn3-c3ccccc3)c2=O)C2(CCCC2)C1` (stereo partly drawn) [Example 177, 5-((10-Hydroxy-7-((R)-4,4,4-trifluoro-2-methylbutanoyl)-7-azaspiro[4.5]decan-10-yl)methyl)-1-phenyl-1,5-dihydro-4H-pyrazolo[3,4-d]pyrimidin-4-one], for which the IC50 fell in the range of 5 to 50 µM. Regarding `Cc1cccc(-c2cc(=O)n(C[C@]3(O)CCN(C(=O)N4CCNC[C@H]4c4cc(F)ccc4F)CC34CCCC4)cn2)c1` [Example 386, 3-(((S)-7-((R)-2-(2,5-Difluorophenyl)piper-azine-1-carbonyl)-10-hydroxy-7-azaspiro[4.5]decan-10-yl)methyl)-6-(m-tolyl)pyrimidin-4(3H)-one], the IC50 was less than 0.5 µM.

With `O=C(NC(C(F)(F)F)C(F)(F)F)N1CC[C@@](O)(Cn2cnc(-c3ccccc3)cc2=O)C2(CCCC2)C1` [Example 308, (S)—N-(1,1,1,3,3,3-Hexafluoropropan-2-yl)-10-hydroxy-10-((6-oxo-4-phenylpyrimidin-1(6H)-yl)methyl)-7-azaspiro[4.5]decane-7-carboxamide], the IC50 fell in the range of 0.5 to 5 µM.
